Results as given in patent publication US20230416261A1, “ETHANEDIAMINE-HETEROCYCLE DERIVATIVES AS INHIBITORS OF PROTEIN ARGININE METHYLTRANSFERASES” (Board of Regents, The University of Texas System, priority 2021, published 2023).

Tests used:
PATC53 cells = experiment: PATC53 Long Term Phenotypic Assay (14 days, crystal violet viability); format: cell-based; conditions: 336 h
Outline: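 Cells seeded at 250 per well, allowed 24 h to settle, then treated with 1:3 serial dilutions of compound for 14 days at 37 °C, 5% CO2. Viability measured by crystal violet staining, solubilised in 10% HOAc, absorbance 590 nm; IC50 from four-parameter logistic fit.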

DOHH2 cells = experiment: DOHH2 Long Term Phenotypic Assay (7 days, Cell Titer-Glo viability); format: cell-based; conditions: Homo sapiens, DOHH-2, 168 h, Cell Titer-Glo 2.0
Outline: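 DOHH2 lymphoma cells (250 per well) in RPMI-1640 with 10% FBS were exposed to 1:3 serially diluted compounds for 7 days at 37 °C, 5% CO2. Viability was read by CellTiter-Glo 2.0 luminescence, and IC50 values came from four-parameter logistic fits.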

PRMT1 = PRMT1 (Homo sapiens, UniProt Q99873); experiment: PRMT1 Enzymatic Assay (LANCE TR-FRET, methylation of histone H4 at Arg3); format: biochemical; design: purchased SignalChem P365-380G; conditions: PRMT1 1.5 nM, SAM 1 μM, biotinylated histone H4 (1-21) 25 nM; read-out: PRMT-1 IC50
Outline: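 PRMT1 (1.5 nM) preincubated 15 min with compound at room temperature, then reacted 1 h with 1 μM SAM and 25 nM biotinylated histone H4 (1-21) in 50 mM Hepes pH 8, 1 mM TCEP, 0.003% Tween-20. H4R3me detected by TR-FRET (665/620 nm ratio); IC50 from four-parameter logistic fit.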

PRMT1, sequence (Q99873 whole entry): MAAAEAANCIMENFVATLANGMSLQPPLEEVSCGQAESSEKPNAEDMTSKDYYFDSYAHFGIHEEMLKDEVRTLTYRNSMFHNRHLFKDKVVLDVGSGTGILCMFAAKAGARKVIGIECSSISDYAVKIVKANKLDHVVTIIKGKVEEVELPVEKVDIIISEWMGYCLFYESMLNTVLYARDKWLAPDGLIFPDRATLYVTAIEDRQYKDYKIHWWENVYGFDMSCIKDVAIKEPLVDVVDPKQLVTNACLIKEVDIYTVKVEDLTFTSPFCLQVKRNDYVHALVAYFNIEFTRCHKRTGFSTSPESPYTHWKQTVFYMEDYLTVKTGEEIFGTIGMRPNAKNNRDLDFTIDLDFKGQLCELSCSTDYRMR

Structure (SMILES) | IC50 (PATC53 cells) | IC50 (DOHH2 cells) | IC50 (PRMT1)
COCC1(COC)CCC(c2c(CN(C)CCN)nn3c2CN(C(=O)C(C)(C)C)CC3)CC1 [Example 2, 1-(2-(((2-aminoethyl)(methyl)amino)methyl)-3-(4,4-bis(methoxymethyl)cyclohexyl)-6,7-dihydropyrazolo[1,5-a]pyrazin-5(4H)-yl)-2,2-dimethylpropan-1-one] | 152 nM | 158 nM | 16 nM
CNCCN(C)Cc1nn2c(c1C1CCC(COC)(COC)CC1)CN(C(=O)C1CCC1)CC2 [Example 1, (3-(4,4-Bis(methoxymethyl)cyclohexyl)-2-((methyl(2-(methylamino)ethyl)amino)methyl)-6,7-dihydropyrazolo[1,5-a]pyrazin-5(4H)-yl)(cyclobutyl)methanone] | 45 nM | 66 nM | 35 nM
